The values below come from patent US8163511B2, “Methods for the identification of LRRK2 interacting molecules” (CellZome AG, priority 2006, dated 2012).

In this assay the target is T1, LRRK2 (Mus musculus, UniProt Q5S006).
T1 construct: from tissue; host or cells: mouse brain
The experiment in a line: Drug pulldown with immobilized indol ligand 91 and identification of LRRK2 by LC-MS/MS. The class given is binding. The following applies: ligand covalently attached to Sepharose beads, mouse brain lysate, SDS elution, SDS-PAGE, twelve LRRK2 peptides identified. The procedure: Proteins binding to immobilized indol ligand 91 were identified using a chemical proteomics procedure. Binding proteins were purified on a resin to which indol ligand 91 was covalently attached. Bound proteins were eluted and subsequently separated by SDS-Polyacrylamide gel elecrophoresis (see FIG. 2), suitable gel bands were cut out and proteins were analyzed by LC-MS/MS mass spectrometry.
NHS-activated Sepharose 4 Fast Flow (Amersham Biosciences, 17-0906-01) was equilibrated with anhydrous DMSO (Dimethylsulfoxid, Fluka, 41648, H20<=0.005%). 1 ml of settled beads were placed in a 15 ml Falcon tube, compound stock solution (usually 100 mM in DMF or DMSO) was added (final conc. 0.2-2 μmol/ml beads) as well as 15 μl of TEA. Beads were incubated at room temperature in darkness on an end-over-end shaker (Roto Shake Genie, Scientific Industries Inc.) for 16-20 hours. Coupling efficiency was determined by HPLC. […]
Mouse brain tissue was homogenized in a Potter S homogenizer (5 ml per brain): 50 mM Tris-HCl, 1% CHAPSO, 5% glycerol, 150 mM NaCl, 1.5 mM MgCl2, 25 mM NaF, 1 mM sodium vanadate, 1 mM DTT, pH 7.5. […] The supernatant was transferred again to a fresh 50 ml falcon tube, the protein concentration was determined by a Bradford assay (BioRad) and samples containing 50 mg of protein per aliquot were prepared. […]

T1 sequence (Q5S006 whole entry V777I/K863N/C925Y/E1011G/E1190G/E1882G/Q2178N): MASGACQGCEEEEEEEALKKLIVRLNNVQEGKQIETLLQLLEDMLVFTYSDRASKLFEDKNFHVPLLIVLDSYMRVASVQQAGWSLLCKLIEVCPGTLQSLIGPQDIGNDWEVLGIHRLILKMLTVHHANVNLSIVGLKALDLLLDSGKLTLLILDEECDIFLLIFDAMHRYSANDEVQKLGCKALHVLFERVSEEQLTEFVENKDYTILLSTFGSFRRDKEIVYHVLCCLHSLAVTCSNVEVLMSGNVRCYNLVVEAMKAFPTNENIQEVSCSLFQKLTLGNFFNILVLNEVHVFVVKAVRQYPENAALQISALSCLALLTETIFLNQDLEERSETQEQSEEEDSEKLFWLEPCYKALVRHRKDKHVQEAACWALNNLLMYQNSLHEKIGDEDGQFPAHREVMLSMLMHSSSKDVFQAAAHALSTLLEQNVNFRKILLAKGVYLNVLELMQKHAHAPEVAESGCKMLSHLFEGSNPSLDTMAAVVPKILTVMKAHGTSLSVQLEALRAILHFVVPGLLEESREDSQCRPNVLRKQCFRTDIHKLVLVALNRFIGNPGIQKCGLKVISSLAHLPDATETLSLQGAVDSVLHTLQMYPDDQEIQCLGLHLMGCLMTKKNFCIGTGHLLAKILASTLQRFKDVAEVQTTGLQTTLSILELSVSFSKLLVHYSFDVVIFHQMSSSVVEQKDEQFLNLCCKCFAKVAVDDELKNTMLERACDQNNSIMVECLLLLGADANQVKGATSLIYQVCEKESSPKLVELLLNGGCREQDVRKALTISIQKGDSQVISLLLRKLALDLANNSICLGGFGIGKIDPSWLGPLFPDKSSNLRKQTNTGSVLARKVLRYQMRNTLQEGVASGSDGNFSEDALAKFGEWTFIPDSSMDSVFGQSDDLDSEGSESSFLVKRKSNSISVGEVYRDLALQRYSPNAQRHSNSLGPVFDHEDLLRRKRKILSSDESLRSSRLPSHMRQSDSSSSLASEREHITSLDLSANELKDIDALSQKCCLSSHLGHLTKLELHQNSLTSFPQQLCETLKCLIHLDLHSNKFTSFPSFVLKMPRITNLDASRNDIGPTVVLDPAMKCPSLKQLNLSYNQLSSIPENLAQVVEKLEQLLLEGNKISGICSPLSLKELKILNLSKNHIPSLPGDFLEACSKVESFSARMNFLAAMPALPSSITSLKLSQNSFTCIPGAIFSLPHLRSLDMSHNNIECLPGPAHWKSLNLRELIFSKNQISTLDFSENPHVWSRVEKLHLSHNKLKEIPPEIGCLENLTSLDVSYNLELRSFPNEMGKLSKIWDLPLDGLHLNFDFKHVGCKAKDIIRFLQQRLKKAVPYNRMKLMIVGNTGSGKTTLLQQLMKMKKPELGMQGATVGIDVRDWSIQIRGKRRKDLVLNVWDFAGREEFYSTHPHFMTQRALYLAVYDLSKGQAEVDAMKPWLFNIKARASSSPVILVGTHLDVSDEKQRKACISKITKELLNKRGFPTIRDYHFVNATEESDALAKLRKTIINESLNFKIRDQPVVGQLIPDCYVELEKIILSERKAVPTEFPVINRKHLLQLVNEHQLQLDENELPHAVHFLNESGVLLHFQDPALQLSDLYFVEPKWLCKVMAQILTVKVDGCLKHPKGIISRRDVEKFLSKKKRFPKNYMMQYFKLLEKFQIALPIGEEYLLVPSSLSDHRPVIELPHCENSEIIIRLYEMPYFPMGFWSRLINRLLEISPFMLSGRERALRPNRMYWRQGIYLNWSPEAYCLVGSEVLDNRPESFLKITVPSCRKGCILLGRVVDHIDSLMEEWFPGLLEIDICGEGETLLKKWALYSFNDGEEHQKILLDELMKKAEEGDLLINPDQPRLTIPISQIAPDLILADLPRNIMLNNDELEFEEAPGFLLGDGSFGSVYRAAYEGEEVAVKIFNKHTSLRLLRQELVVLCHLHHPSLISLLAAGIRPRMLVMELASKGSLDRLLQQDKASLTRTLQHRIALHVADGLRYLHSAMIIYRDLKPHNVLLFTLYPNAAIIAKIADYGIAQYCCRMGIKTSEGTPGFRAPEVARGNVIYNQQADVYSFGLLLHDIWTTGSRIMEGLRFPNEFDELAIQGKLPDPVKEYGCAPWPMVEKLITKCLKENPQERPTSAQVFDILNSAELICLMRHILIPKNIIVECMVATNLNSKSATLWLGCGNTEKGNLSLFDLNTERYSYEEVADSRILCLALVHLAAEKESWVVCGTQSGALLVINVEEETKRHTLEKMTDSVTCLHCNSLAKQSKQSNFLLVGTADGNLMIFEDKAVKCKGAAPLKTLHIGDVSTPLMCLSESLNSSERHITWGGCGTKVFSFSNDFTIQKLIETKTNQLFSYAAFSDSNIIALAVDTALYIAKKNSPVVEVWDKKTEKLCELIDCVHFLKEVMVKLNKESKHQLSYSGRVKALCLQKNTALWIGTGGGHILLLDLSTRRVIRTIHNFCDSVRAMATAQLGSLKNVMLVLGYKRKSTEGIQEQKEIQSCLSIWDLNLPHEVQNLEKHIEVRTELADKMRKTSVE

On to `Cc1[nH]c(/C=C2\C(=O)Nc3ccc(F)cc32)c(C)c1C(=O)NCCCN` [indol ligand 91, 5-[5-Fluoro-2-oxo-1,2-dihydro-indol-(3Z)-ylidenemethyl]-2,4-dimethyl-1H-pyrrole-3-carboxylic acid (3-amino-propyl)-amide], for which the “enrichment/identification of LRRK2 bound to the immobilized ligand” value was “can be used to enrich and characterize LRRK2 from mouse brain lysates”.
